Molecules are shown by their SMILES. Converted amounts (≈) assume the structure as drawn. Like-named read-outs stand apart in the source and are kept apart here. Peptide text beside a SMILES is read from it.

Usually MIC stands for the lowest concentration found to suppress growth. Higher therefore signals a need for much substance.

One assay has as its system B. subtilis. It is filed as cell-based, Bacillus subtilis. How it is done: (§1) In certain embodiments the MIC assays are performed as described herein in the Examples. For each organism, the media and growth conditions utilized is detailed in Table 8.
(§2) In certain embodiments the MIC assays are performed as follows: For each organism, the media and growth conditions utilized is detailed in Table 8.

For the next assay, the system named is A. niger. It is filed as cell-based, Aspergillus niger. As to the method:
as §1, §2

The next assay deals with T. rubrum. It is filed as cell-based, Trichophyton rubrum. As to the method:
as §1, §2

Another assay deals with MRSA. It is filed as cell-based, Staphylococcus aureus. How it is done:
as §1, §2

The next assay relates to S. pneumoniae. In kind it is cell-based, Streptococcus pneumoniae. As to the method:
as §1, §2

The subject of another assay is S. epidermidis. In kind it is cell-based. As to the method:
as §1, §2

The mark [1] stands for this setting: S. pneumoniae, TSB supplemented with 5% yeast extract, 37° C., 10% CO2, 10^6 CFU/ml.

With `CSCC[C@H](NC(=O)[C@H](CCCNC(=N)N)NC(=O)[C@H](CCCNC(=N)N)NC(=O)[C@H](CC(C)C)NC(=O)[C@H](CCCNC(=N)N)NC(=O)[C@H](CCC(=O)O)NC(=O)[C@@H](NC(=O)[C@H](CS)NC(=O)CNC(=O)[C@H](CCCNC(=N)N)NC(=O)[C@@H](N)CCCNC(=N)N)[C@@H](C)O)C(=O)N[C@@H](C)C(=O)N[C@@H](CCCNC(=N)N)C(=O)N[C@@H](CCCNC(=N)N)C(=O)N[C@@H](CC(N)=O)C(=O)N[C@@H](C)C(=O)N[C@@H](Cc1c[nH]c2ccccc12)C(=O)N[C@@H](CC(=O)O)C(=O)N[C@@H](CC(C)C)C(=O)N[C@@H](Cc1ccc(O)cc1)C(=O)N[C@@H](C)C(=O)N[C@@H](CCC(=O)O)C(=O)N[C@@H](Cc1c[nH]cn1)C(=O)N[C@@H](Cc1ccccc1)C(=O)N[C@@H](Cc1ccc(O)cc1)C(=O)O` [PF-148] (H-RRGCTERLRRMARRNAWDLYAEHFY-OH; N-terminus and C-terminus assumed), the MIC against B. subtilis and with A. niger was 50 µM (≈ 161 µg/mL) each time.

For `CC[C@H](C)[C@H](NC(=O)[C@H](C)NC(=O)[C@@H]1CCCN1C(=O)[C@H](Cc1ccccc1)NC(=O)[C@@H]1CCCN1C(=O)[C@H](CC(C)C)NC(=O)[C@@H](N)C(C)C)C(=O)N1CCC[C@H]1C(=O)N[C@@H](CC(C)C)C(=O)N[C@@H](CO)C(=O)N[C@@H](CCCNC(=N)N)C(=O)N[C@@H](CCCNC(=N)N)C(=O)N[C@@H](CCCNC(=N)N)C(=O)N[C@@H](C)C(=O)N[C@@H](CS)C(=O)N[C@H](C(=O)N[C@@H](C)C(=O)N[C@@H](C)C(=O)N1CCC[C@H]1C(=O)N[C@@H](CCCNC(=N)N)C(=O)N1CCC[C@H]1C(=O)N[C@@H](CCCNC(=N)N)C(=O)N[C@@H](CO)C(=O)N[C@@H](CCCNC(=N)N)C(=O)N[C@@H](CCC(N)=O)C(=O)N[C@@H](CCCNC(=N)N)C(=O)N[C@@H](C)C(=O)N[C@@H](CO)C(=O)O)C(C)C` [PF-168] (H-VLPFPAIPLSRRRACVAAPRPRSRQRAS-OH; N-terminus and C-terminus assumed), the minimum inhibitory concentration (MIC) in the assay with T. rubrum, in the assay with A. niger and against MRSA was 50 µM (≈ 156 µg/mL) throughout.

Consider `CC(C)[C@H](NC(=O)[C@H](C)NC(=O)[C@H](Cc1ccc(O)cc1)NC(=O)[C@@H](N)CC(N)=O)C(=O)N[C@H](C(=O)N[C@@H](CO)C(=O)N[C@@H](Cc1c[nH]cn1)C(=O)N[C@H](C(=O)O)[C@@H](C)O)C(C)C` [PF-209] (H-NYAVVSHT-OH; N-terminus and C-terminus assumed), for which the minimum inhibitory concentration (MIC) in the assay on MRSA came to 50 µM (≈ 44.5 µg/mL).

For the compound `CC(C)C[C@H](NC(=O)[C@H](CCC(N)=O)NC(=O)[C@H](CO)NC(=O)[C@H](CCC(N)=O)NC(=O)[C@H](CC(C)C)NC(=O)[C@@H](N)CO)C(=O)NCC(=O)N1CCC[C@H]1C(=O)N[C@@H](CS)C(=O)N[C@@H](CC(C)C)C(=O)N[C@@H](Cc1c[nH]cn1)C(=O)N[C@@H](CC(=O)O)C(=O)N[C@@H](CCC(N)=O)C(=O)N[C@@H](CCCNC(=N)N)C(=O)N[C@@H](Cc1c[nH]cn1)C(=O)O` [PF-448] (H-SLQSQLGPCLHDQRH-OH; N-terminus and C-terminus assumed), the minimal inhibitory concentration (MIC) stood at 50 µM (≈ 85.9 µg/mL) with S. pneumoniae and 25 µM (≈ 43 µg/mL) with A. niger.

In the assay on B. subtilis, `CC[C@H](C)[C@H](NC(=O)[C@H](Cc1ccccc1)NC(=O)[C@@H](NC(=O)[C@H](Cc1ccccc1)NC(=O)[C@H](CC(C)C)NC(=O)[C@H](CC(=O)O)NC(=O)[C@@H](NC(=O)[C@H](CS)NC(=O)[C@@H](NC(=O)[C@H](CCCNC(=N)N)NC(=O)[C@H](CC(C)C)NC(=O)[C@@H](NC(=O)[C@@H](N)CC(C)C)C(C)C)[C@@H](C)CC)[C@@H](C)O)[C@@H](C)O)C(=O)N[C@@H](CCCCN)C(=O)N[C@@H](Cc1c[nH]c2ccccc12)C(=O)N[C@H](C(=O)N[C@H](C(=O)N[C@@H](CCCCN)C(=O)N[C@@H](CCC(N)=O)C(=O)N[C@@H](CCCNC(=N)N)C(=O)N[C@@H](CCCCN)C(=O)N[C@@H](CO)C(=O)O)[C@@H](C)CC)[C@@H](C)O` [PF-497] (H-LVLRICTDLFTFIKWTIKQRKS-OH; N-terminus and C-terminus assumed) gave an MIC of 50 µM (≈ 136 µg/mL).

Compound `CC[C@H](C)[C@H](NC(=O)[C@H](CC(C)C)NC(=O)[C@@H]1CCCN1C(=O)[C@@H]1CCCN1C(=O)[C@H](CCCCN)NC(=O)[C@@H](NC(=O)[C@H](Cc1ccc(O)cc1)NC(=O)[C@H](CC(C)C)NC(=O)[C@H](CO)NC(=O)[C@H](CCC(N)=O)NC(=O)[C@H](CCSC)NC(=O)[C@@H](N)C(C)C)C(C)C)C(=O)N[C@@H](CC(C)C)C(=O)N[C@H](C(=O)N[C@H](C(=O)N[C@@H](CCCCN)C(=O)N[C@@H](CC(C)C)C(=O)N[C@@H](C)C(=O)N[C@@H](CCC(N)=O)C(=O)N[C@@H](CCC(N)=O)C(=O)N[C@@H](CC(N)=O)C(=O)O)[C@@H](C)O)C(C)C` [PF-511] (H-VMQSLYVKPPLILVTKLAQQN-OH; N-terminus and C-terminus assumed) displayed an MIC in the assay with S. pneumoniae (setting [1]) of 50 µM (≈ 119 µg/mL).

With `CC[C@H](C)[C@H](NC(=O)[C@H](CCC(=O)O)NC(=O)[C@@H]1CCCN1C(=O)[C@H](CCSC)NC(=O)[C@H](Cc1ccccc1)NC(=O)[C@@H](N)CO)C(=O)N[C@@H](CCC(N)=O)C(=O)N[C@@H](CCCCN)C(=O)N[C@@H](CC(N)=O)C(=O)N[C@H](C(=O)N[C@H](C(=O)N1CCC[C@H]1C(=O)N[C@H](C(=O)N[C@@H](CCC(N)=O)C(=O)N[C@@H](CCSC)C(=O)N[C@@H](CCCCN)C(=O)O)[C@@H](C)O)[C@@H](C)CC)[C@@H](C)O` [PF-512] (H-SFMPEIQKNTIPTQMK-OH; N-terminus and C-terminus assumed), in the assay on S. pneumoniae (setting [1]), the MIC stood at 50 µM (≈ 94.7 µg/mL).

Regarding `CC(C)C[C@H](NC(=O)CNC(=O)[C@@H](N)CC(C)C)C(=O)N[C@H](C(=O)N[C@@H](C)C(=O)NCC(=O)N[C@H](C(=O)N[C@@H](C)C(=O)N[C@@H](Cc1ccc(O)cc1)C(=O)N[C@@H](C)C(=O)N[C@@H](C)C(=O)N[C@@H](CCC(N)=O)C(=O)N1CCC[C@H]1C(=O)N[C@H](C(=O)N[C@@H](CC(N)=O)C(=O)N[C@@H](CCC(N)=O)C(=O)N1CCC[C@H]1C(=O)N[C@H](C(=O)N[C@@H](CC(N)=O)C(=O)N[C@@H](CCC(N)=O)C(=O)N1CCC[C@H]1C(=O)N[C@H](C(=O)N[C@@H](CC(N)=O)C(=O)N[C@@H](CCC(N)=O)C(=O)N1CCC[C@H]1C(=O)N[C@H](C(=O)N[C@@H](CC(N)=O)C(=O)N[C@@H](CCC(N)=O)C(=O)N1CCC[C@H]1C(=O)N[C@H](C(=O)N[C@@H](CC(N)=O)C(=O)N[C@@H](CCC(N)=O)C(=O)N1CCC[C@H]1C(=O)N[C@H](C(=O)N[C@@H](CC(N)=O)C(=O)N[C@@H](CCC(N)=O)C(=O)N1CCC[C@H]1C(=O)N[C@@H](CCCNC(=N)N)C(=O)N[C@@H](Cc1c[nH]c2ccccc12)C(=O)O)[C@@H](C)O)[C@@H](C)O)[C@@H](C)O)[C@@H](C)O)[C@@H](C)O)[C@@H](C)O)C(C)C)[C@@H](C)O` [PF-520] (H-LGLTAGVAYAAQPTNQPTNQPTNQPTNQPTNQPTNQPRW-OH; N-terminus and C-terminus assumed), the MIC in the assay on S. pneumoniae (setting [1]) was 50 µM (≈ 211 µg/mL).

In the assay on S. pneumoniae, `CC(C)C[C@H](NC(=O)[C@H](CC(C)C)NC(=O)[C@H](Cc1c[nH]cn1)NC(=O)[C@H](CC(N)=O)NC(=O)[C@H](CCCCN)NC(=O)[C@H](CC(C)C)NC(=O)[C@H](CO)NC(=O)[C@H](CCCNC(=N)N)NC(=O)[C@H](CO)NC(=O)[C@H](C)NC(=O)[C@H](CCC(N)=O)NC(=O)[C@H](CCCCN)NC(=O)[C@H](CO)NC(=O)[C@H](C)NC(=O)[C@H](CCC(N)=O)NC(=O)[C@H](CCCCN)NC(=O)[C@H](CO)NC(=O)[C@H](C)NC(=O)[C@H](CCC(N)=O)NC(=O)[C@H](CCCCN)NC(=O)[C@H](CO)NC(=O)[C@H](C)NC(=O)[C@H](CCC(N)=O)NC(=O)[C@H](CCCCN)NC(=O)[C@H](CO)NC(=O)[C@H](C)NC(=O)[C@H](CCC(N)=O)NC(=O)[C@H](CCCCN)NC(=O)[C@H](CO)NC(=O)[C@H](C)N)C(=O)O` [PF-523] (H-ASKQASKQASKQASKQASKQASRSLKNHLL-OH; N-terminus and C-terminus assumed) came in with an MIC of 50 µM (≈ 161 µg/mL).

For `CSCC[C@H](NC(=O)[C@H](CCC(=O)O)NC(=O)[C@H](CO)NC(=O)[C@@H](N)CC(C)C)C(=O)N[C@@H](CCC(=O)O)C(=O)N[C@@H](CCCNC(=N)N)C(=O)N[C@@H](CCCNC(=N)N)C(=O)N[C@@H](CCCNC(=N)N)C(=O)N[C@@H](CC(C)C)C(=O)N[C@@H](CCCNC(=N)N)C(=O)N[C@@H](CCCCN)C(=O)N[C@@H](CCCNC(=N)N)C(=O)N[C@@H](C)C(=O)O` [PF-529] (H-LSEMERRRLRKRA-OH; N-terminus and C-terminus assumed), the MIC against S. pneumoniae and against A. niger was 50 µM (≈ 85.1 µg/mL) in each case.

As for `CC[C@H](C)[C@H](NC(=O)[C@H](CC(N)=O)NC(=O)[C@@H](NC(=O)[C@H](Cc1ccccc1)NC(=O)[C@H](CCC(=O)O)NC(=O)CNC(=O)[C@H](CCC(N)=O)NC(=O)[C@H](Cc1ccccc1)NC(=O)[C@@H](N)CCCCN)[C@@H](C)O)C(=O)NCC(=O)N[C@@H](CCC(N)=O)C(=O)N[C@@H](CO)C(=O)N[C@@H](Cc1ccc(O)cc1)C(=O)N[C@H](C(=O)N[C@H](C(=O)N[C@@H](CO)C(=O)N[C@@H](C)C(=O)N[C@@H](CO)C(=O)N[C@@H](Cc1c[nH]cn1)C(=O)N[C@@H](CCSC)C(=O)N[C@@H](CO)C(=O)N[C@H](C(=O)N[C@@H](CO)C(=O)N[C@@H](CC(C)C)C(=O)N[C@@H](CC(N)=O)C(=O)N[C@H](C(=O)NCC(=O)N[C@@H](CCCCN)C(=O)O)[C@@H](C)O)[C@@H](C)O)C(C)C)[C@@H](C)CC` [PF-583] (H-KFQGEFTNIGQSYIVSASHMSTSLNTGK-OH; N-terminus and C-terminus assumed), the minimum inhibitory concentration (MIC) against S. epidermidis and in the assay with MRSA was 50 µM (≈ 152 µg/mL) in each case.

The values above are taken from patent US20100184684A1, “ANTIBACTERIAL AND ANTIFUNGAL PEPTIDES” (C3 JIAN, INC., priority 2009, published 2010).
